Test results reported in US9180118B2, “Thiadiazolidinone derivatives” (University of Rochester, priority 2006, dated 2015).
Where a SMILES comes first, the peptide text is derived from it. The star is where a group is joined. Cbz = O=C(OCc1ccccc1)*; CH2F = FC*

Legend:
[1] = system: normal specimens (BM, CB, MPB); test: Viability of normal specimens (BM, CB, MPB), Annexin V/7-AAD; format: cell-based, human; settings: normal specimens
Experimental: (§1) The cells were isolated and processed as described. […] All drug treatments were performed in triplicate. […] Total viable cell numbers were determined using a flow cytometric apoptosis assay as described. Briefly, after 18 h of treatment, specimens were labeled with anti-CD34-PE (Becton Dickinson, San Jose, Calif.) for 20 minutes. […] The total number of events collected was 100,000. The percent viable cells was defined as AnnexinV^neg/7-AAD^neg cells on total (ungated) cells and on gates set for CD34^+ populations. • [1] Jordan, C. T., et al., The interleukin-3 receptor alpha chain is a unique marker for human acute myelogenous leukemia stem cells. Leukemia, 2000. 14(10): p. […] Lansdorp, P. M. and W. Dragowska, Long-term erythropoiesis from constant numbers of CD34+ cells in serum-free cultures initiated with highly purified progenitor cells from human bone marrow. […] Guzman, M. L., et al., Nuclear factor-kappaB is constitutively activated in primitive human acute myelogenous leukemia cells. […] 98(8): p.

primary AML specimens = test: Viability of primary AML specimens, Annexin V/7-AAD flow cytometry; format: cell-based, human; settings: for Rapid kinetics: cell death kinetics; for Cytotoxic AML: primary AML specimens
Experimental: as §1

[2] = listed as 2-chloro-1-(4,5-dibromo-thiophen-2-yl-ethanone)
[3] = pre-treated 1 h prior to 20 μM TDZD-8, viability at 24 hours

SMILES	Cytotoxic Normal [1]	Cytotoxic Normal [1, 2]	Rapid kinetics (primary AML specimens)	Cytotoxic AML (primary AML specimens)	Cytotoxic AML (primary AML specimens; [2])	abrogation of TDZD-8 induced death by pan-caspase inhibitor (primary AML specimens; [3])	effect of pretreatment on cell death induced by TDZD-8 (primary AML specimens; [3])
O=C(CCl)c1cc(Br)c(Br)s1 [2-Chloro-1-(4,5-dibromo-thiophen-2-yl)-ethanone]	Yes	toxic to normal cells	No	Yes	could induce AML cell death	–	–
O=C1NC(=O)C(Cc2ccc(OCCN3COc4ccccc4C3=O)cc2)S1 (stereo not drawn) [DRF 2519]	No	–	No	No	–	–	–
Cc1c(C)c2c(c(C)c1O)CCC(C)(COc1ccc(CC3SC(=O)NC3=O)cc1)O2 (stereo not drawn) [Troglitazone]	Yes	–	–	Yes	–	–	–
O=c1sn(Cc2ccccc2)c(=S)n1Cc1ccccc1 [2,4-Dibenzyl-5-oxothiadiazolidine-3-thione]	No	–	No	No	–	–	–
O=C1Cc2c([nH]c3ccc(Br)cc23)-c2ncccc2N1 [1-Azakenpaullone]	No	–	No	No	–	–	–
O=C1CSC(=O)N1 [2,4-thiazolidinedione]	No	–	No	No	–	–	–
COc1ccc(CNC(=O)Nc2ncc([N+](=O)[O-])s2)cc1 [AR-A014418]	No	–	No	No	–	–	–
Nc1cccc(-c2cc3c(Oc4cccc(O)c4)ncnc3[nH]2)c1 [TWS119]	No	–	No	No	–	–	–
O=C1Nc2cc(Br)ccc2/C1=C1/Nc2ccccc2/C1=N\O [BIO]	No	–	–	No	–	–	–
Cn1cc(C2=C(c3ccc(Cl)cc3Cl)C(=O)NC2=O)c2ccccc21 [SB-216763]	No	–	No	No	–	–	–
Cc1cc(Nc2nc(-c3ccccc3)nc3ccccc23)n[nH]1 [(5-Methyl-1H-pyrazol-3-yl)-(2-phenylquinazolin-4-yl)amine]	No	–	No	No	–	–	–
CCOc1ccc(C=C2SC(=O)N(CCN)C2=O)cc1.Cl [-(2-Aminoethyl)-5-((4-ethoxyphenyl)methylene)-2,4-thiazolidinedione, HCl]	No	–	No	No	–	–	–
CC(NC(=O)C(NC(=O)OCc1ccccc1)C(C)C)C(=O)NC(CC(=O)O)C(=O)CF (stereo not drawn) [Z-VAD] (Cbz-Val-Ala-Asp-CH2F; configuration not given here)	–	–	–	–	–	no abrogation of death was observed	–
O=C1NC(=O)C(=Cc2ccc3c(c2)OC(F)(F)O3)S1 [5-(2,2-Difluoro-benzo[1,3]dioxol-5-ylmethylene)-thiazolidine-2,4-dione]	–	–	No	–	–	–	–
CC(=O)N[C@@H](CS)C(=O)O [NAC, N-acetyl-cysteine]	–	–	–	–	–	–	completely blocked the cell death response
